According to US12071425B2 (Genentech, Inc., priority 2018, dated 2024):
pIC50: −log10 of the molar value. Counter-ions that a name gives are not always drawn.

These molecules were tested against kinase domain of IRE1 alpha (His-tagged kinase dead construct KR, AA G547-L977, D688N) (Homo sapiens (Human), UniProt O75460, D688N) (assay: IRE1α TR-FRET competition binding assay). Settings: competition with Kinase Tracer 236, 0.1 μM; one hour at room temperature.
In short: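 Compound displacement of an ATP-site fluorescent tracer (0.1 μM final) measured by TR-FRET after 1 h at room temperature. Protein, a His-tagged D688N kinase/RNase construct from Sf9 cells (0.006 μM final), was pre-bound 1 h at 4° C to Eu anti-His antibody (0.002 μM) in pH 7.5 HEPES buffer.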

Chain of kinase domain of IRE1 alpha (His-tagged kinase dead construct KR, AA G547-L977, D688N) (O75460 547-977 D688N): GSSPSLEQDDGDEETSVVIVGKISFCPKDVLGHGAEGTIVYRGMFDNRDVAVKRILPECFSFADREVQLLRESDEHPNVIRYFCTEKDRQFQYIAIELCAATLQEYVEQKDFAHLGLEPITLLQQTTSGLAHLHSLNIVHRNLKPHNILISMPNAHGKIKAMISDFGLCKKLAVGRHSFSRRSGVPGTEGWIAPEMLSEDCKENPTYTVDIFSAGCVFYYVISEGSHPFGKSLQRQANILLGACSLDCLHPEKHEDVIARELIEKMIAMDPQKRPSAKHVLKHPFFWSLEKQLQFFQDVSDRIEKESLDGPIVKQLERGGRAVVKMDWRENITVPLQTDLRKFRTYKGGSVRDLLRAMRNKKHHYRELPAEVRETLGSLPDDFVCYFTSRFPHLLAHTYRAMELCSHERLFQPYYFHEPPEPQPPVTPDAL

Compound | pIC50
Cc1cc(Oc2ncccc2-c2ccnc(N[C@@H]3CNC[C@@](C)(F)C3)n2)c(F)c(F)c1NS(=O)(=O)Cc1ccccc1 [Compound 279, N-(2,3-Difluoro-4-((3-(2-(((3S,5S)-5-fluoro-5-methylpiperidin-3-yl)amino)pyrimidin-4-yl)pyridin-2-yl)oxy)-6-methylphenyl)-1-phenylmethanesulfonamide] | 9.64
N#Cc1ccc(S(=O)(=O)Nc2ccc(Oc3ncccc3-c3ccnc(N[C@H]4CCCNC4)n3)c(F)c2F)cc1 [Compound 219, (S)-4-cyano-N-(2,3-difluoro-4-((3-(2-(piperidin-3-ylamino)pyrimidin-4-yl)pyridin-2-yl)oxy)phenyl)benzenesulfonamide] | 7.28
N#Cc1cccc(S(=O)(=O)Nc2ccc(Oc3ncccc3-c3ccnc(N[C@H]4CCCNC4)n3)c(F)c2F)c1 [Compound 220, (S)-3-cyano-N-(2,3-difluoro-4-((3-(2-(piperidin-3-ylamino)pyrimidin-4-yl)pyridin-2-yl)oxy)phenyl)benzenesulfonamide] | 7.72
O=S(=O)(CC1CCCC1)Nc1ccc(Oc2ncccc2-c2ccnc(N[C@H]3CCCNC3)n2)c(F)c1F [Compound 228, (S)-1-cyclopentyl-N-(2,3-difluoro-4-((3-(2-(piperidin-3-ylamino)pyrimidin-4-yl)pyridin-2-yl)oxy)phenyl)methanesulfonamide] | 8.04
COC1CNCC(Nc2nccc(-c3cccnc3Oc3cc(F)c(NS(=O)(=O)Cc4ccccc4)c(F)c3F)n2)C1 (single isomer, unassigned) [Compound 318, 1-Phenyl-N-(2,3,6-trifluoro-4-((3-(2-((5-methoxypiperidin-3-yl)amino)pyrimidin-4-yl)pyridin-2-yl)oxy)phenyl)methanesulfonamide] | 9.52
CC(C)(C)CCCS(=O)(=O)Nc1ccc(Oc2ncccc2-c2ccnc(N[C@H]3CCCNC3)n2)c(F)c1F [Compound 230, (S)-N-(2,3-difluoro-4-((3-(2-(piperidin-3-ylamino)pyrimidin-4-yl)pyridin-2-yl)oxy)phenyl)-4,4-dimethylpentane-1-sulfonamide] | 7.85
O=S(=O)(Nc1ccc(Oc2ncccc2-c2ccnc(N[C@H]3CCCNC3)n2)c(F)c1F)c1cccc(OC(F)(F)F)c1 [Compound 207, (S)-N-(2,3-difluoro-4-((3-(2-(piperidin-3-ylamino)pyrimidin-4-yl)pyridin-2-yl)oxy)phenyl)-3-(trifluoromethoxy)benzenesulfonamide] | 8.13
O=S(=O)(Nc1c(F)cc(Oc2ncccc2-c2ccnc(N[C@@H]3CNC[C@@H](F)C3)n2)c(F)c1F)N1CCCCC1 [Compound 263, N-(2,3,6-Trifluoro-4-((3-(2-(((3S,5S)-5-fluoropiperidin-3-yl)amino)pyrimidin-4-yl)pyridin-2-yl)oxy)phenyl)piperidine-1-sulfonamide] | 8.82
Cc1ccc(CS(=O)(=O)Nc2c(F)cc(Oc3ncccc3-c3ccnc(N[C@@H]4CNC[C@@H](F)C4)n3)c(F)c2F)cc1 [Compound 375, 1-p-Tolyl-N-(2,3,6-trifluoro-4-((3-(2-(((3S,5S)-5-fluoropiperidin-3-yl)amino)pyrimidin-4-yl)pyridin-2-yl)oxy)phenyl)methanesulfonamide] | 9.40
N[C@H]1CC[C@H](Nc2nccc(-c3cccnc3Oc3ccc(NS(=O)(=O)Cc4ccccc4)c(F)c3F)n2)CC1 [Compound 169, N-(4-((3-(2-(((1r,4r)-4-Aminocyclohexyl)amino)pyrimidin-4-yl)pyridin-2-yl)oxy)-2,3-difluorophenyl)-1-phenylmethanesulfonamide] | 8.39
CCCCS(=O)(=O)Nc1cc(C)c(Oc2ncccc2-c2ccnc(N[C@H]3CCCNC3)n2)c(F)c1 [Compound 115, (S)-N-(3-fluoro-5-methyl-4-((3-(2-(piperidin-3-ylamino)pyrimidin-4-yl)pyridin-2-yl)oxy)phenyl)butane-1-sulfonamide hydrochloride] | 7.52
